# Reference: publication PMC8480776, “Selenium Derivatives as Promising Therapy for Chagas Disease: In Vitro and In Vivo Studies” (ACS Infectious Diseases, 2021)
# Assays:
# [1] = system: T. cruzi epimastigotes, Arequipa strain; test: Screening against extracellular epimastigotes, Arequipa strain; format: cell-based, Trypanosoma cruzi; conditions: for IC50: Trypanosoma cruzi, 48 h + 24 h resazurin, read-out: Activity IC50, epimastigote form, Arequipa strain; for Selectivity index (SI), epimastigotes, Arequipa strain: IC50 Vero cells/IC50 epimastigotes
# [2] = system: T. cruzi epimastigotes, SN3 strain; test: Screening against extracellular epimastigotes, SN3 strain; format: cell-based, Trypanosoma cruzi; conditions: for IC50: Trypanosoma cruzi, 48 h + 24 h resazurin, read-out: Activity IC50, epimastigote form, SN3 strain; for Selectivity index (SI), epimastigotes, SN3 strain: IC50 Vero cells/IC50 epimastigotes
# [3] = system: T. cruzi epimastigotes, Tulahuen strain; test: Screening against extracellular epimastigotes, Tulahuen strain; format: cell-based, Trypanosoma cruzi; conditions: for IC50: Trypanosoma cruzi, TULAHUEN, 48 h + 24 h resazurin, read-out: Activity IC50, epimastigote form, Tulahuen strain; for Selectivity index (SI), epimastigotes, Tulahuen strain: IC50 Vero cells/IC50 epimastigotes
# [4] = system: Vero cells; test: Cytotoxicity test on Vero cells; format: cell-based; conditions: Chlorocebus sabaeus, 48 h + 24 h resazurin, read-out: Toxicity IC50 Vero cell
# [5] = system: T. cruzi amastigotes, Arequipa strain; test: Screening against intracellular amastigotes, Arequipa strain; format: cell-based, Trypanosoma cruzi; conditions: for selectivity index (SI), Arequipa strain, am. forms: IC50 Vero cells/IC50 amastigotes; for IC50: Trypanosoma cruzi, amastigotes in Vero cells, 72 h, read-out: activity IC50, Arequipa strain, am. forms
# [6] = system: T. cruzi trypomastigotes, Arequipa strain; test: Screening against bloodstream trypomastigotes, Arequipa strain; format: cell-based, Trypanosoma cruzi; conditions: for selectivity index (SI), Arequipa strain, trypom. forms: IC50 Vero cells/IC50 trypomastigotes; for IC50: Trypanosoma cruzi, bloodstream trypomastigotes, 24 h + 4 h resazurin, read-out: activity IC50, Arequipa strain, trypom. forms
# [7] = system: T. cruzi amastigotes, SN3 strain; test: Screening against intracellular amastigotes, SN3 strain; format: cell-based, Trypanosoma cruzi
# [8] = system: T. cruzi trypomastigotes, SN3 strain; test: Screening against bloodstream trypomastigotes, SN3 strain; format: cell-based, Trypanosoma cruzi
# [9] = system: T. cruzi amastigotes, Tulahuen strain; test: Screening against intracellular amastigotes, Tulahuen strain; format: cell-based, Trypanosoma cruzi; conditions: Trypanosoma cruzi, TULAHUEN; amastigotes in Vero cells, 72 h; read-out: activity IC50, Tulahuen strain, am. forms
# [10] = system: T. cruzi trypomastigotes, Tulahuen strain; test: Screening against bloodstream trypomastigotes, Tulahuen strain; format: cell-based, Trypanosoma cruzi; conditions: Trypanosoma cruzi, TULAHUEN; bloodstream trypomastigotes, 24 h + 4 h resazurin; read-out: activity IC50, Tulahuen strain, trypom. forms
SMILES,IC50 [1] [µM],IC50 [2] [µM],IC50 [3] [µM],CC50 [4] [µM],also measured
O=C(Nc1ccc([Se][Se]c2ccc(NC(=O)c3ccc(C(F)(F)F)cc3)cc2)cc1)c1ccc(C(F)(F)F)cc1 [Compound 6],> 50,> 50,> 50,536 ± 39.2,
CSc1ccc(C(=O)Nc2ccc([Se]C#N)cc2)cc1 [Compound 34],16.4 ± 2,21 ± 2.7,29.1 ± 3.1,72.6 ± 9.9,"Selectivity index (SI), epimastigotes, Arequipa strain [1]: 4; Selectivity index (SI), epimastigotes, SN3 strain [2]: 3; Selectivity index (SI), epimastigotes, Tulahuen strain [3]: 2"
N#C[Se]c1ccc(NP(=O)(Oc2ccccc2)Oc2ccccc2)cc1 [Compound 37],20.1 ± 2.8,30.3 ± 3.2,22.3 ± 3,< 50,
Cc1ccc(OP(=O)(Nc2ccc([Se][Se]c3ccc(NP(=O)(Oc4ccc(C)cc4)Oc4ccc(C)cc4)cc3)cc2)Oc2ccc(C)cc2)cc1 [Compound 20],> 50,> 50,> 50,< 50,
CCOP(=S)(Nc1ccc([Se][Se]c2ccc(NP(=S)(OCC)OCC)cc2)cc1)OCC [Compound 18],> 50,> 50,> 50,182 ± 14.3,
N#C[Se]c1ccc(NC(=O)c2ccno2)cc1 [Compound 30],9.8 ± 1,24.1 ± 2.3,15.3 ± 1.1,86 ± 6.7,"Selectivity index (SI), epimastigotes, Arequipa strain [1]: 9; Selectivity index (SI), epimastigotes, SN3 strain [2]: 4; Selectivity index (SI), epimastigotes, Tulahuen strain [3]: 6"
N#C[Se]c1ccc(NC(=O)c2ccccc2)cc1 [Compound 21],> 50,37.1 ± 4.6,> 50,< 50,
O=C(Nc1ccc([Se][Se]c2ccc(NC(=O)c3cccc4ccccc34)cc2)cc1)c1cccc2ccccc12 [Compound 13],> 50,> 50,> 50,98.2 ± 12.8,
CCOP(=O)(Nc1ccc([Se][Se]c2ccc(NP(=O)(OCC)OCC)cc2)cc1)OCC [Compound 17],> 50,> 50,> 50,183 ± 20,
O=C(Nc1ccc([Se][Se]c2ccc(NC(=O)c3cccs3)cc2)cc1)c1cccs1 [Compound 9],> 50,48 ± 6.4,> 50,< 50,
O=P(Nc1ccccc1)(Nc1ccc([Se][Se]c2ccc(NP(=O)(Nc3ccccc3)Oc3ccccc3)cc2)cc1)Oc1ccccc1 (centres unmarked) [Compound 19],> 50,> 50,> 50,< 50,
Cc1ccc(C(=O)Nc2ccc([Se]C#N)cc2)cc1 [Compound 27],4.5 ± 0.7,4.2 ± 0.3,4.9 ± 0.3,< 50,
O=P(Nc1ccc([Se][Se]c2ccc(NP(=O)(Oc3ccccc3)Oc3ccccc3)cc2)cc1)(Oc1ccccc1)Oc1ccccc1 [Compound 16],> 50,> 50,> 50,147 ± 11.4,
N#C[Se]c1ccc(NC(=O)c2ccc(C#N)cc2)cc1 [Compound 24],30.5 ± 1.9,9.8 ± 1.2,15.4 ± 2.1,70.8 ± 5.4,"Selectivity index (SI), epimastigotes, Arequipa strain [1]: 2; Selectivity index (SI), epimastigotes, SN3 strain [2]: 7; Selectivity index (SI), epimastigotes, Tulahuen strain [3]: 5"
N#C[Se]c1ccc(NC(=O)c2cccs2)cc1 [Compound 29],5.4 ± 0.8,8.9 ± 1.1,6.6 ± 0.4,60.9 ± 8.7,"Selectivity index (SI), epimastigotes, Arequipa strain [1]: 11; Selectivity index (SI), epimastigotes, SN3 strain [2]: 7; Selectivity index (SI), epimastigotes, Tulahuen strain [3]: 9; selectivity index (SI), Arequipa strain, am. forms [5]: 4; IC50 [5]: 15.4 ± 2 µM; selectivity index (SI), Arequipa strain, trypom. forms [6]: 5; IC50 [6]: 12.7 ± 1.2 µM"
O=C(Nc1ccc([Se][Se]c2ccc(NC(=O)C34CC5CC(CC(C5)C3)C4)cc2)cc1)C12CC3CC(CC(C3)C1)C2 [Compound 11],> 50,> 50,> 50,226 ± 19.1,
O=C(Nc1ccc([Se][Se]c2ccc(NC(=O)c3ccco3)cc2)cc1)c1ccco1 [Compound 8],> 50,> 50,> 50,1250 ± 97.7,
COP(=O)(Nc1ccc([Se][Se]c2ccc(NP(=O)(OC)OC)cc2)cc1)OC [Compound 15],19.6 ± 2,12.5 ± 1.1,14.4 ± 1.7,< 50,
O=C(Nc1ccc([Se][Se]c2ccc(NC(=O)c3ccno3)cc2)cc1)c1ccno1 [Compound 10],> 50,> 50,> 50,212 ± 18.7,

SMILES,IC50 [1] [µM],IC50 [2] [µM],IC50 [3] [µM],CC50 [4] [µM],also measured
N#C[Se]c1ccc(NC(=O)c2cccc3ccccc23)cc1 [Compound 33],9.4 ± 1.2,4.8 ± 0.6,10.8 ± 1.2,52.7 ± 4.9,"Selectivity index (SI), epimastigotes, Arequipa strain [1]: 6; Selectivity index (SI), epimastigotes, SN3 strain [2]: 11; Selectivity index (SI), epimastigotes, Tulahuen strain [3]: 5; selectivity index (SI), SN3 strain, am. forms ([7]; IC50 Vero cells/IC50 amastigotes): 3; IC50 ([7]; Trypanosoma cruzi, amastigotes in Vero cells, 72 h, read-out: activity IC50, SN3 strain, am. forms): 16.9 ± 1.4 µM; selectivity index (SI), SN3 strain, trypom. forms ([8]; IC50 Vero cells/IC50 trypomastigotes): 4; IC50 ([8]; Trypanosoma cruzi, bloodstream trypomastigotes, 24 h + 4 h resazurin, read-out: activity IC50, SN3 strain, trypom. forms): 14.1 ± 1.1 µM"
O=C(/C=C/c1ccccc1)Nc1ccc([Se][Se]c2ccc(NC(=O)/C=C/c3ccccc3)cc2)cc1 [Compound 12],> 50,> 50,> 50,280 ± 24.4,
O=C(Nc1ccc([Se][Se]c2ccc(NC(=O)c3ccccc3)cc2)cc1)c1ccccc1 [Compound 1],> 50,> 50,> 50,800 ± 44,
COP(=O)(Nc1ccc([Se]C#N)cc1)OC [Compound 36],28.1 ± 3.2,4.3 ± 0.7,18.4 ± 1.4,< 50,
CCOP(=O)(Nc1ccc([Se]C#N)cc1)OCC [Compound 38],> 50,> 50,> 50,< 50,
N#C[Se]c1ccc(NC(=O)c2ccc([N+](=O)[O-])cc2)cc1 [Compound 25],26.3 ± 2.1,> 50,25.3 ± 4.1,516 ± 42.2,"Selectivity index (SI), epimastigotes, Arequipa strain [1]: 20; Selectivity index (SI), epimastigotes, Tulahuen strain [3]: 20; selectivity index (SI), Arequipa strain, am. forms [5]: 10; IC50 [5]: 49.3 ± 4.1 µM; IC50 [9]: > 50 µM; selectivity index (SI), Arequipa strain, trypom. forms [6]: 14; IC50 [6]: 35.8 ± 5.8 µM; IC50 [10]: 42.2 ± 3.9 µM"
O=C(Nc1ccc([Se][Se]c2ccc(NC(=O)c3ccc(Cl)cc3)cc2)cc1)c1ccc(Cl)cc1 [Compound 2],> 50,> 50,> 50,622 ± 41.9,
O=C(Nc1ccc([Se][Se]c2ccc(NC(=O)c3ccc([N+](=O)[O-])cc3)cc2)cc1)c1ccc([N+](=O)[O-])cc1 [Compound 5],> 50,> 50,> 50,552 ± 43.1,
N#C[Se]c1ccc(NC(=O)C23CC4CC(CC(C4)C2)C3)cc1 [Compound 31],4.6 ± 0.5,12.5 ± 1.6,8.1 ± 0.9,< 50,
N#Cc1ccc(C(=O)Nc2ccc([Se][Se]c3ccc(NC(=O)c4ccc(C#N)cc4)cc3)cc2)cc1 [Compound 4],> 50,> 50,> 50,280 ± 34.2,
COc1ccc(C(=O)Nc2ccc([Se]C#N)cc2)cc1 [Compound 23],34.5 ± 2.7,4.1 ± 0.4,17.6 ± 2.5,< 50,
Cc1ccc(OP(=O)(Nc2ccc([Se]C#N)cc2)Oc2ccc(C)cc2)cc1 [Compound 41],> 50,43.2 ± 5.3,29.9 ± 2.1,< 50,
COc1ccc(C(=O)Nc2ccc([Se][Se]c3ccc(NC(=O)c4ccc(OC)cc4)cc3)cc2)cc1 [Compound 3],> 50,> 50,> 50,252 ± 21.6,
N#C[Se]c1ccc(NP(=O)(Nc2ccccc2)Oc2ccccc2)cc1 (centres unmarked) [Compound 40],41.1 ± 4.4,> 50,> 50,< 50,
Cc1ccc(C(=O)Nc2ccc([Se][Se]c3ccc(NC(=O)c4ccc(C)cc4)cc3)cc2)cc1 [Compound 7],> 50,> 50,> 50,341 ± 28.3,
N#C[Se]c1ccc(NC(=O)c2ccc(Cl)cc2)cc1 [Compound 22],36.2 ± 2.8,5.4 ± 0.7,19.4 ± 1.4,< 50,
CSc1ccc(C(=O)Nc2ccc([Se][Se]c3ccc(NC(=O)c4ccc(SC)cc4)cc3)cc2)cc1 [Compound 14],> 50,> 50,> 50,407 ± 17.8,
N#C[Se]c1ccc(NC(=O)/C=C/c2ccccc2)cc1 [Compound 32],7.4 ± 0.9,4.8 ± 0.8,7.9 ± 0.5,< 50,
